Test in all cases: NCI tumour cell line growth inhibition, 48 h
Assay [1] has as its system RPMI-8226 leukemia.
Assay [2] has as its system SN12C renal.
The subject of assay [3] is HL-60(TB) leukemia.
For assay [4], the system named is SNB-75 CNS.
The subject of assay [5] is 786-0 renal.
In assay [6] the test system is EKVX NSCLC.
Assay [7] has as its system UACC-62 melanoma.
In assay [8] the test system is OVCAR-4 ovarian.
Assay [9] deals with SF-295 CNS.
Assay [10] deals with NCI-H226 lung.
Assay [11] deals with K-562 leukemia.
The subject of assay [12] is SF-268 CNS.
Assay [13] relates to MDA-MB-231 breast.

Each structure is given as a SMILES string.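 Method: 48-hour compound exposure of cells in 96-well plates, five concentrations, linear interpolation of endpoints. The concentration for full growth arrest is given as TGI.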 A value given as a limit tells only on which side of the number the result lay.

As to `C[N+](C)(C)CC(=O)N/N=C/c1oc(-c2c(O)ccc3ccccc23)c(-c2c(O)ccc3ccccc23)c1[N+](=O)[O-]`, the TGI in [1] is above 100 µM; in [2], 92.7 µM; in assay [3] it was 66.6 µM; in assay [4] it was 61.1 µM; in [5], 44.3 µM; in assay [6], 45 µM. For the same compound, the TGI is 18.6 µM in assay [7]; 80.8 µM in assay [8]; 47.4 µM in [9]; 36.3 µM in [10]; above 100 µM in assay [11]; 47.3 µM in [12].
In the case of `O=c1[nH]c2cc([N+](=O)[O-])ccc2nc1/C(=N/Nc1ccccc1)C(O)c1ccccc1Cl` (stereo not given), the TGI in [1], in [2], in assay [3], in assay [4], in assay [5] and in [6] was above 100 µM each time. Also, the TGI in assay [7], in assay [8], in assay [9], in assay [10], in assay [11] and in [12] was above 100 µM in each case.
With `C/C(CC(=O)Nc1ccc([N+](=O)[O-])cc1)=N\NC(N)=O`, the TGI in [1] is above 69.5 µM; in assay [2], above 100 µM; in [3] it was above 100 µM; in assay [4] it was above 100 µM; in assay [5], above 100 µM; in assay [6] it was above 100 µM. Moreover, the TGI in [7], in assay [8], in assay [9], in [10], in [11] and in [12] was above 100 µM throughout.
As for `CNc1ncnc2c1ncn2C1C=CC(COS(N)(=O)=O)C1` (stereo not given), the TGI in assay [1], in assay [2], in assay [3], in [4], in assay [5] and in assay [6] was above 100 µM each time. Moreover, the TGI in [7], in [8], in assay [9], in [11] and in [12] was above 100 µM throughout.
For the compound `CCc1n[nH]c(=O)n1/N=C/c1c(O)ccc2ccccc12`, the TGI in assay [1], in [2], in assay [4], in [5], in assay [13] and in [6] was above 100 µM each time. For the same compound, the TGI in assay [7], in assay [8], in assay [9], in [11] and in assay [12] was above 100 µM each time.
`COC(=O)C(=O)C(C(=O)C(=O)Nc1ccc(F)cc1)c1nc2ccc([N+](=O)[O-])cc2[nH]c1=O` (stereo not given): the TGI in assay [1], in [2], in assay [3], in assay [4], in assay [5] and in assay [6] was above 100 µM throughout. Also, the TGI in assay [8], in assay [9], in [10], in assay [11] and in assay [12] was above 100 µM throughout.
`Clc1ccc(NCc2nnc(CCCCCCCCc3nnc(CNc4ccc(Cl)cc4)o3)o2)cc1`: the TGI in [1], in [2], in assay [4], in assay [5], in [13] and in assay [6] was above 100 µM each time. Besides, the TGI in assay [7], in [8], in assay [9], in assay [11] and in [12] was above 100 µM each time.
On to `COc1ccc2c3c1O[C@]1(C)C34CCN(C)C(C2)C42C=C[C@@]1(OC)c1c(O)ccc(O)c12`, for which the TGI in assay [1], in [3], in assay [4], in assay [5], in assay [6] and in assay [9] was above 100 µM throughout. The TGI in assay [11] and in [12] was above 100 µM each time.
In the case of `CC(=O)OC1COC(n2c(O)c(N=NC(N)=S)c3cc(Br)ccc32)C(OC(C)=O)C1OC(C)=O` (stereo not given), the TGI in [1], in assay [2], in assay [3], in [5], in assay [6] and in [7] was above 100 µM throughout. Besides, the TGI in assay [8], in assay [9], in assay [10], in [11] and in [12] was above 100 µM in each case.
On to `C[C@]12CCC(=O)C=C1CC[C@@H]1[C@@H]2CC[C@]2(C)C(=O)NC(=O)C[C@@H]12`, for which the TGI in assay [1], in [2], in assay [3], in [4], in assay [5] and in [6] was above 100 µM each time. In addition, the TGI in [7], in [8], in assay [9], in [10], in [11] and in assay [12] was above 100 µM throughout.
Take `COC(=O)N/N=C(\Cc1ccccc1)CN(C)C`: the TGI in assay [1], in assay [3], in assay [4], in assay [5], in assay [6] and in assay [7] was above 100 µM each time. Moreover, the TGI in assay [9], in assay [11] and in assay [12] was above 100 µM in each case.
Take `COC1=C(OC)C(=O)C(Cc2c(Cl)nc3sc(C)cn23)=C(C)C1=O`: the TGI in assay [1] worked out at 31.8 µM; in [2] it was 30.5 µM; in [5] it was 38.8 µM; in [13] it was 41.8 µM; in [6], 35.6 µM; in [7], 25.6 µM. For the same compound, the TGI in assay [8] was 20.6 µM; in assay [9] it was 32.1 µM; in assay [11], 45.5 µM; in assay [12], 37 µM.

(Values after PubChem BioAssay (NCI).)
